Assay results as given in patent publication US5264423A, “Inhibitors for replication of retroviruses and for the expression of oncogene products” (The United States of America as represented by the …, priority 1992, dated 1993).
Entries after “also recorded” stand apart in the source; their conditions may differ.

How the values were obtained:
HL60 cells [1] = experiment: HL60 cell growth (cell count); assay type: cell-based
HL60 cells [2] = experiment: DNA synthesis (3H-thymidine incorporation) in HL60 cells; assay type: cell-based; settings: 50 uM, day 1
Protocol: To obtain the results shown in FIG. 4, nonsense or antisense S-ODNs were added at a final concentration of 50 uM on day 0 to cells seeded at 3×10^5/ml. DNA synthesis was determined on day 1 by incubating cells with 1 uCi 3H-thymidine for 4 hours, after which time 10% trichloroacetic acid was added and acid precipitatable radioactivity was trapped on Sihatman glass fiber filters. The filters were subjected to liquid scintillation counting to determine levels of radioactivity.

endonuclease S1 = experiment: Nuclease susceptibility, S1 nuclease; assay type: in vitro ADME
Text: (§1) Several oligodeoxynucleotides were studied with regard to DNase sensitivity, cf. Table 5. These include cytidine homopolymers, ODN-4 (an anti-message 28-mer complementary to the 3' region of the art/trs region of HIV BH10 clone), and myc-1 (a 15-mer complementary to the initiation codon region of the C-myc oncogene). The DNases employed were predominantly endonuclease S1, the exo- and endonuclease P1, and snake venom (SV) phosphodiesterase. The concentration of S1 nuclease was ten-fold higher (100 micromoles/ml) for reactions of oligo-dc, since both the normal and PS analog were degraded extremely slowly be this enzyme. S1 and P1 nuclease digestion proceeded at 2-45 times more slowly for the S-ODNs than for the normal oligomers, with the […] being somewhat more readily digested than the 28-mer.

exo- and endonuclease P1 = experiment: Nuclease susceptibility, P1 nuclease; assay type: in vitro ADME
Text: as §1

[3] = test system: snake venom (SV) phosphodiesterase; experiment: Nuclease susceptibility, snake venom phosphodiesterase; assay type: in vitro ADME
Text: as §1

[4] = test system: c-myc protein in HL60 cells; experiment: c-myc protein reduction; assay type: cell-based
[5] = test system: HIV (HTLV-IIIB) in ATH8 cells; experiment: HIV cytopathic effect inhibition (viable ATH8 cells, trypan blue)
Protocol: FIGS. 1A-1D and Table 1, The target cells (2×10^5 ATH8 cells) in each tube were pretreated with the stated concentration of each oligomer for 16 hours and then incubated with Polybrene for 45 minutes. After centrifugation, each set of pelleted cells was exposed to HIV (500 virions per cell, which is a much higher dose than the minimal cytopathic dose) and incubated for one hour. Complete media (2 ml RPMI1640) supplemented with L-glutamine (4 mti), 2-mercaptoethanol ([…]), penicillin (50 unit/ml), and streptomycin (50 micrograms/ml), and containing 15% fetal calf serum and IL-2 (15% of conventional IL-2 from Advanced Biotechnologies, Inc., Silver Spring, MD, plus 20 unit/ml of recombinant IL-2 from Amgen Biochemicals, Thousand Oaks, CA) with the various concentrations of oligomers added. The number of viable cells were counted in a hemocytometer using the trypan blue exclusion method for day 7 following exposure to the virus. Filled columns represent non-virus exposed cells, and dotted columns represent virus exposed cells.
The HIV cytopathic effect inhibition with oligodeoxynucleotides was performed with 18 hours of pretreatment of 2×10^5 target cells (ATH8 cells) with oligos prior to exposure to HTLV-IIIB. After this pretreatment, target cells were treated with Polybrene (2 micrograms/ml) for one hour. The target cells were then, respectively, exposed to HTLV-IIIB virus (generally 500 virions per cell in this series of experiments) for one hour. The 2×10^5 cells were then diluted to 2 ml with complete media containing IL-2 and various concentrations of oligos.
The number of viable cells was counted in a hemocytometer using the trypan blue exclusion method on day 7 following exposure to the virus. Each set of data were obtained from simultaneously performed experiments so as to make a precise comparison among agents tested.
The target cells (2×10^5 ATH8 cells per tube) were preincubated with the stated concentrations of S-dC14 for 24 hours and pretreated with 2 micrograms/ml of Polybrene for 45 minutes. After centrifugation, pelleted cells were exposed to the HIV (1000 virions per cell) for one hour. The cells were incubated in 2 ml of complete media containing IL-2, and the viable cells were counted on day 13.
On day 13 after the exposure to the virus, viable cells were counted by the trypan blue dye exclusion method.

[6] = test system: HIV p24 gag protein in chronically HIV-infected H9 cells; experiment: HIV gag protein expression in chronically HIV-infected H9 cells, indirect immunofluorescence; assay type: cell-based
Protocol: The percentage of cells expressing p24 gag protein of HIV was determined by indirect immunofluorescence microscopy by using anti-HIV p24 murine monoclonal antibody.
Generally, it has been assumed that anti-sense sequences inhibit the expression of various genes by translation arrest, i.e. that they bind to MRNA and block its translation. In order to test this possibility, gag protein synthesis was analyzed in chronically HIV-infected and -producing H9 cells by indirect immunofluorescent assay under a microscope. […] Alternatively, the level of any translation arrest could have been below the threshold of detection by indirect immunofluorescent assay under a microscope. […] Therefore, one mechanism for the antiviral effect could depend on blocking viral replication perhaps prior to, or at the stage of, pro-viral DNA synthesis.

[7] = test system: de novo HIV DNA synthesis in ATH8 cells; experiment: Southern blot of de novo HIV DNA synthesis; assay type: cell-based; settings: days 4 and 7
Text: Target cells (1×10^7 ATH8 cells) were pretreated with or without S-dC28 at various concentrations for sixteen hours, then treated with Polynrene, exposed to HIV (500 virus particles per cell), resuspended, and cultured in the presence or absence of S-dC28. On days 4 and 7 following the exposure to the virus, high molecular weight DNA was extracted, digested with Asp718 (a Kpn I isoschizomer from Boehringer-tiannheim, Indianapolis, IN), and subjected to Southern blot analysis hybridized with a labelled insert of molecular clone of the env region of HTLV-III (BH10) containing a 1.3 Kb Bgl II fragment.
FIGS. 6A-6D show the inhibitor effect of the phosphorothioate oligodeoxycytidine analog (S-dC28) on de novo HIV DNA synthesis in target cells. On days 4 and 7 following the exposure to the virus, a substantial amount of viral DNA was detected by Southern blot analysis without antiviral agents.
On day 4, shown in lanes A-E, and day 7, shown in lanes F-J, following exposure to the virus, high molecular weight DNA was extracted. Lanes A and F contain DNA from ATH8 cells that were exposed to the virus and not protected by S-dC28. Lanes B and G, C and H, D and I, contain DNA from ATH8 cells pretreated and cultured with 1 micromole, 5 micromoles, and 7 micromoles S-dC28, respectively. Lanes E and J contain DNA from ATH8 cells treated with 50 micromoles 2', 3'-dideoxyadenonsine, and lane K contains DNA from ATH8 cells that was not exposed to the virus.

[8] = test system: T4 molecule in T4 cells (H9 cells); experiment: Specific binding of radiolabelled HIV to T4 molecule
Protocol: (§2) The possibility that the S-ODN analogs may interfere with HIV binding to target cells was tested.

[9] = test system: T4, HLA-DR, T8, T3, or Tac antigen on the cell surface of ATH8 cells; experiment: Cell surface antigens by fluorescent-activated cytofluorometry; assay type: cell-based; settings: 1 micromole (printed i), sixteen hours
Protocol: as §2

[10] = test system: ATH8 cells (printed AT[18); experiment: Cell uptake of 35S-phosphorothioate end-labelled oligomer, ATH8 cells; assay type: in vitro ADME; settings: within several minutes
Text: (§3) Phosphatase-resistant 35S-phosphorothioate end-labelled S-dC28 was employed to investigate the permeability of target cells.

H9 cells = experiment: Cell uptake of 35S-phosphorothioate end-labelled oligomer, H9 cells; assay type: in vitro ADME; settings: within several minutes
Text: as §3

Solubility = assay type: physicochemical; settings: acetate salts
Text: The phosphorothioate oligodeoxynucleotides of the present invention have suitable chemical characteristics, namely, the ability to hybridize with complementary DNA/MRNA under physiological conditions, and better solubility properties relative to methylphosphonates. Moreover, the thioesters are as soluble in biological media as the parent compounds.
Oligodeoxynucleotides with blocks of phosphorothioates at the 3' or 5' ends were synthesized by automatically changing the oxidation cycle at the required point. […] Introduction of a small amount of ammonia vapor, not aqueous ammonia, by a Pasteur PiPette solubilized all the solids. The yield determined from absorbance at lambda max was about 30%.

dAACGTTGAGGGGCAT [S-myc-1]
concentration relative to that required for the normal oligomer (HL60 cells [1]): less than 1% | duration of antiproliferative effects (HL60 cells [1]): up to three days | growth inhibition of HL60 cells at 0.1 micro M (HL60 cells [1]; 0.1 micro M): effective | effect on HL60 cell proliferation (HL60 cells [1]; in words): significant inhibition of cell proliferation | inhibition of DNA synthesis (3H-thymidine incorporation) (HL60 cells [2]): significant inhibition | Nuclease susceptibility, t1/2 (endonuclease S1): 5.5 min | Ratio = t1/2 PSoligo/t1/2 POoligo (endonuclease S1): 9 | Ratio = t1/2 PSoligo/t1/2 POoligo (exo- and endonuclease P1): 4 | Ratio = t1/2 PSoligo/t1/2 POoligo [3]: 443 | reduction of c-myc protein [4]: reduction of c-myc protein

(dC)n n = 28 [S-dC28]
protection against the virus / antiviral activity ([5]; 0.5 micromoles): complete protection against the virus; also recorded: complete antiviral activity; also recorded: potent antiHIV activity | inhibition of viral replication and protection of ATH8 cells from HIV ([5]; 3 micromoles, day 7): 100% | in vitro therapeutic index (ratio of cytotoxic to effective concentration) ([5]; compared with dideoxycytidine and dideoxyadenosine): comparable in vitro index to those of dideoxycytidine and dideoxyadenosine | anti-HIV activity (cytopathic effect) ([5]; in words): most consistent and durable antiviral effects | Percentage of gag positive cells ([6]; 5 micro M, 8 hours in culture): 82% | Percentage of gag positive cells ([6]; 5 micro M, 24 hours in culture): 91% | Percentage of gag positive cells ([6]; 5 micro M, 72 hours in culture): 85% | Percentage of gag positive cells ([6]; 5 micro M, 120 hours in culture): 79% | Percentage of gag positive cells ([6]; 10 micro M, 8 hours in culture): 74% | Percentage of gag positive cells ([6]; 10 micro M, 24 hours in culture): 80% | Percentage of gag positive cells ([6]; 10 micro M, 72 hours in culture): 71% | Percentage of gag positive cells ([6]; 10 micro M, 120 hours in culture): 82% | Percentage of gag positive cells ([6]; 25 micro M, 8 hours in culture): 69% | Percentage of gag positive cells ([6]; 25 micro M, 24 hours in culture): 86% | Percentage of gag positive cells ([6]; 25 micro M, 72 hours in culture): 75% | Percentage of gag positive cells ([6]; 25 micro M, 120 hours in culture): 74% | gag protein positivity ([6]; concentrations as high as 25 micromoles, 120 hours): failed to reduce gag protein positivity; also recorded: did not inhibit gag protein positivity | 2.7 Kb env-containing KPN I viral DNA fragment detection ([7]; 1, 5 and 7 micromoles, lanes B-D, G-I): detected only in lanes A and F | inhibition of de novo synthesis of viral DNA ([7]; concentrations as low as / down to 1 micromolar): significantly inhibited the de novo synthesis of viral DNA; also recorded: complete inhibition | Ratio = t1/2 PSoligo/t1/2 POoligo (endonuclease S1): 2 | Ratio = t1/2 PSoligo/t1/2 POoligo (exo- and endonuclease P1): 15 | Nuclease susceptibility, t1/2 [3]: > 27.7778 h | Ratio = t1/2 PSoligo/t1/2 POoligo [3]: > 1400 | inhibition of specific binding of labelled virus to T4 [8]: No inhibition | changes in T4, HLA-DR, T8, T3, or Tac antigen [9]: no detectable changes | uptake (increase of radioactivity) [10]: Significant increases of radioactivity | uptake (increase of radioactivity) (H9 cells): Significant increases of radioactivity | solubility in 1 M NaCl (Solubility): extremely insoluble in 1 M NaCl
